Values joined by “and” are separate entries in the source; they are usually repeats but may differ in a detail not shown here. Identical values can stand only once. Like-named read-outs stand apart in the source and are kept apart here.
Legend:
Type in all cases: cell-based
Fusarium oxysporum = test system: Fusarium oxysporum; parameters: key to Plate antimicrobial activity test Fusarium oxysporum, level: a case where hyphae extended to the entire well and no antimicrobial activity was found is defined as “level 0,”; a case where hyphae extended to less than a half of the well and thus the peptide inhibited the growth of the hyphae is defined as “level 1,”; a case where ungerminated spores were present and the peptide partially inhibited the germination is defined as “level 2,”; a case where all spores were ungerminated and the peptide completely inhibited the germination is defined as “level 3.”
Botrytis cinerea = test system: Botrytis cinerea; parameters: key to Plate antimicrobial activity test Botrytis cinerea, level: a case where hyphae extended to the entire well and no antimicrobial activity was found is defined as “level 0,”; a case where hyphae extended to less than a half of the well and thus the peptide inhibited the growth of the hyphae is defined as “level 1,”; a case where ungerminated spores were present and the peptide partially inhibited the germination is defined as “level 2,”; a case where all spores were ungerminated and the peptide completely inhibited the germination is defined as “level 3.”; conditions: 25° C. for 1 day or 2 days, microscopic observation
[1] = test system: Colletotrichum orbiculare; parameters: key to Plate antimicrobial activity test Colletotrichum orbiculare, level: a case where hyphae extended to the entire well and no antimicrobial activity was found is defined as “level 0,”; a case where hyphae extended to less than a half of the well and thus the peptide inhibited the growth of the hyphae is defined as “level 1,”; a case where ungerminated spores were present and the peptide partially inhibited the germination is defined as “level 2,”; a case where all spores were ungerminated and the peptide completely inhibited the germination is defined as “level 3.”; conditions: 25° C. for 1 day or 2 days, microscopic observation
[2] = test system: Colletotrichum destructivum; parameters: key to Plate antimicrobial activity test Colletotrichum destructivum, level: a case where hyphae extended to the entire well and no antimicrobial activity was found is defined as “level 0,”; a case where hyphae extended to less than a half of the well and thus the peptide inhibited the growth of the hyphae is defined as “level 1,”; a case where ungerminated spores were present and the peptide partially inhibited the germination is defined as “level 2,”; a case where all spores were ungerminated and the peptide completely inhibited the germination is defined as “level 3.”; conditions: 25° C. for 1 day or 2 days, microscopic observation
Pyricularia oryzae = test system: Pyricularia oryzae; parameters: key to Plate antimicrobial activity test Pyricularia oryzae, level: a case where hyphae extended to the entire well and no antimicrobial activity was found is defined as “level 0,”; a case where hyphae extended to less than a half of the well and thus the peptide inhibited the growth of the hyphae is defined as “level 1,”; a case where ungerminated spores were present and the peptide partially inhibited the germination is defined as “level 2,”; a case where all spores were ungerminated and the peptide completely inhibited the germination is defined as “level 3.”; conditions: 25° C. for 1 day or 2 days, microscopic observation

Substance	Plate antimicrobial activity test Fusarium oxysporum, level (Fusarium oxysporum)	Plate antimicrobial activity test Botrytis cinerea, level (Botrytis cinerea; peptide 1 μM)	Plate antimicrobial activity test Botrytis cinerea, level (Botrytis cinerea; peptide 10 μM)	Plate antimicrobial activity test Botrytis cinerea, level (Botrytis cinerea; peptide 100 μM)	Plate antimicrobial activity test Colletotrichum orbiculare, level ([1]; peptide 1 μM)	Plate antimicrobial activity test Colletotrichum orbiculare, level ([1]; peptide 10 μM)	Plate antimicrobial activity test Colletotrichum orbiculare, level ([1]; peptide 100 μM)	Plate antimicrobial activity test Colletotrichum destructivum, level ([2]; peptide 1 μM)	Plate antimicrobial activity test Colletotrichum destructivum, level ([2]; peptide 10 μM)	Plate antimicrobial activity test Colletotrichum destructivum, level ([2]; peptide 100 μM)	Plate antimicrobial activity test Pyricularia oryzae, level (Pyricularia oryzae; peptide 1 μM)	Plate antimicrobial activity test Pyricularia oryzae, level (Pyricularia oryzae; peptide 10 μM)	Plate antimicrobial activity test Pyricularia oryzae, level (Pyricularia oryzae; peptide 100 μM)
EELMVVAEEEAYRRVRGGMGW (listed as Solanum lycopersicum) [TsORF6-3, chemically synthesized region of TsORF6]	0	0	0	0	0	0	0	0	0	0	0	0	0
IVVKT (listed as Solanum lycopersicum) [TsORF6-1-5aa-5, partial peptide of TsORF6-1, 5 amino acid residues]	0	0	0	0	0	0	0	0	0	0	0	0	0
IVVKTKVK (listed as Solanum lycopersicum) [TsORF6-1-8aa-5, partial peptide of TsORF6-1, 8 amino acid residues]	0	0	0	0	0	0	0	0	0	0	0	0	0
KKVAKMMV (listed as Solanum lycopersicum) [TsORF6-1-8aa-14, partial peptide of TsORF6-1, 8 amino acid residues]	0	0	0	0	0	0	0	0	0	0	0	0	0
KMMVKEDEKNKRVITMKEELMV (listed as Solanum lycopersicum) [TsORF6-2, chemically synthesized region of TsORF6]	1 and 0	0	0	2	0	0	0	0	0	0	0	0	0
KNKKV (listed as Solanum lycopersicum) [TsORF6-1-5aa-12, partial peptide of TsORF6-1, 5 amino acid residues]	0	0	0	0	0	0	0	0	0	0	0	0	0
KNKKVAKM (listed as Solanum lycopersicum) [TsORF6-1-8aa-12, partial peptide of TsORF6-1, 8 amino acid residues]	0	0	0	0	0	0	0	0	0	0	0	0	0
KTKVK (listed as Solanum lycopersicum) [TsORF6-1-5aa-8, partial peptide of TsORF6-1, 5 amino acid residues]	0	0	0	0	0	0	0	0	0	0	0	0	0
KTKVKNKK (listed as Solanum lycopersicum) [TsORF6-1-8aa-8, partial peptide of TsORF6-1, 8 amino acid residues]	0	0	0	1	0	0	0	0	0	0	0	0	0
KVAKMMVK (listed as Solanum lycopersicum) [TsORF6-1-8aa-15, partial peptide of TsORF6-1, 8 amino acid residues]	0	0	0	0	0	0	0	0	0	0	0	0	0
